Experiments:
aortic rings = assay: β-amyloid augmentation of phenylephrine (PE) induced contraction of aortic rings; parameters: species or system rat; conditions: for effect on β-amyloid induced enhancement of PE mediated contraction: β-amyloid 5×10^-7 M, PE 4×10^-8 M, L-NMMA 10^-4 M, indomethacin 10^-5 M, SQ 29548 10^-5 M, catalase 1000 units/ml
Description: (§1) The blood vessel preparations were mounted on stainless steel hooks attached to a force-displacement transducer and equilibrated under the optimum tension of 1.3 g for a period of sixty minutes in a tissue bath (10 ml) containing oxygenated (5% CO2 in O2) Kreb's buffer at 37° C. The buffer was changed every fifteen minutes. After equilibration for sixty minutes the viability of the blood vessel with intact endothelium was established by constricting the blood vessel using phenylephrine ([…]). This dose of phenylephrine elicited 80% of the maximum response. […] The vessel preparations were washed for fifteen minutes before various manipulations as described below.
The procedure was then repeated following incubation of the tissue with 10^-6 M β-amyloid for fifteen minutes (P1). The tissue was then rinsed and contractions repeated twice following fifteen minute incubation (P2 & P3) without further addition of β-amyloid. Arrows are shown for points of addition for P3.
Following a fifteen minute incubation, the preparations were contracted with 10^-7 M phenylephrine (PE) as described earlier. Control contractions with PE alone were carried out in presence of the various test compounds. Values represent the mean±SEM of four or more experiments. The heat-inactivated SOD was prepared by placing it in boiling water for thirty minutes followed by cooling prior to use. The hydrogen peroxide-inactivated SOD was prepared by exposing SOD to 10 mM H2 O2 for thirty minutes at pH 8.5 and subsequent separation using Microcon filtration system. The amyloid induced PE contraction was blocked by active SOD. Neither albumin or inactivated SOD had any effect on the amyloid activity.
The effect of preincubation of blood vessel with 10^-6 M β-amyloidon contraction induced by phenylephrine (2, 4, 8, & 16×10^-8 M is shown in Table 1). The maximum contraction in the absence of β-amyloid is taken as 100% and the values obtained following exposure to β-amyloid are expressed as percent of control value. After washing out phenylephrine and acetylcholine of the control contraction, β-amyloid augmented the phenylephrine induced contractions (P1). This effect was blocked by SOD. Washing out the phenylephrine and acetylcholine of the post peptide contraction and repeating the contractions caused further enhancement (P2). Values represent the mean±SEM of nine or more experiments.
The tissue was then incubated for fifteen minutes with β-amyloid (5×10^-7 M) with or without the drug, followed by contractions with PE. The concentrations compounds used were: L-NMMA, an inhibitor of NO synthase (10^-4 M); indomethacin, an inhibitor of the cyclooxygenase pathway (10^-5 M); SQ 29548, a thromboxane A2 receptor antagonist (10^-5 M); and catalase (1000 units/ml). Values are represented as percentage of the maximal contraction obtained with β-amyloid and PE alone and standardized to remove the intrinsic effects (if any) of each drug on PE contraction alone. The results represent the mean±SEM of five or more experiments.

blood vessel (rat aorta) = assay: Vascular response of blood vessel rings in tissue bath (basal tension, β-amyloid induced vasoactivity)
Description: Freshly excised rat and porcine blood vessels were placed in Kreb's bicarbonate buffer equilibrated with 5% CO2 in O2. The buffer composition consisted of 118.2 mM NaCl, 4.7 mM KCl, 1.2 mM MgSO4, 2.5 mM CaCl2, 1.2 mM NaH2 PO4, 23 mM NaHCO3 and 11.2 mM glucose. After cleaning the vessels free of fat and other adhering tissues, the vessels were cut into ring segments of approximately 3 mm in length. Care was taken not to damage the intimal surface.
The endothelium was removed from some preparations by rubbing the inside of the lumen with a metal spatula for six to ten seconds and subsequent rinsing with buffer. The removal of endothelium was confirmed by testing for relaxation to acetylcholine [Furchgott and Zawadzki, 1980].
as §1
Referring to FIG. 10, the arrow indicates the addition of 10^-6 M β-amyloid. The control tissue received no β-amyloid. SOD (150 units/ml) was added thirty seconds prior to the addition of β-amyloid. The maximum contraction induced by β-amyloid was 1.14±0.13 (g) and in presence of SOD the contraction was reduced to 0.04±0.02 (g). Values represent the mean±SEM of five separate experiments.

[1] = test system: human aortic endothelial cel line (HAEC); assay: Aβ toxicity on HAEC and its prevention (trypan blue exclusion, HE stain); conditions: pimozide 10 μM, three hours post treatment
Description: (§2) All these cells were maintained at 37° C., under an atmosphere containing 5% CO2. For the present experiments, HAEC and BE(2)-M17 were seeded at densities of 2×10^4 cells per well in 24-23ll clusters.
(§3) The experiments were terminated one half, one, two and three hours post treatment by detachment with Trypsin/EDTA solution and followed by a toxicity assay with trypan blue exclusion. In parallel experiments, cells were attached to a round Thermanox (Nunc) at the bottom of the well, and were stopped three to 24 hours post treatment by fixation with 4% neutral formalin solution which was followed by Hematoxylin-Eosin stain to show morphology.
(§4) Morphological changes in cells were monitored throughout the course of the experiment with an inverse phase-contrast microscope. After termination of the experiments, the cells fixed on the Thermanox were subjected to routine Hematoxylin-Eosin (HE) stain. The morphological characteristics of toxic cells were observed under light microscope and typical results were recorded by photographs.
(§5) For approximate quantification of Aβ toxicity of HAEC, modified procedure for trypan blue exclusion was employed. In brief, the detached cells were resuspended with an appropriate volume of culture media, 20 μl of this cell suspension was mixed with an equivalent volume of 4% Trypan-blue solution thoroughly, and allowed to sit for two minutes after mixing. Approximately 9 μl of the mixture was transferred to a hemocytometer for cell counting. The cell viability was determined by the equation: [formula] In the case of severe toxicity, where some of the cells were lysed, the total cell numbers were adjusted by that of controls. In this experiment, counts for each sample were triplicated.

rat aorta = assay: Enhancement of endothelin-1 (ET-1) induced vasoconstriction of rat aorta; conditions: for enhancement of ET-1 contraction: peptide 1 μM (Aβ25-35 1 μM and 5 μM) ten minutes prior to first ET-1 dose
Description: Normal Sprague-Dawley rats were sacrificed by decapitation, and freshly dissected rat aorta was segmented into rings and suspended in Ringers buffer using a tensiometer linked to the MacLab system. Following a two hour equilibration period, the "pretreatment" contraction was carried out. The aortic rings were contracted using a range of doses of endothelin-1 and relaxed using a single odes of acetylcholing (Ach(10^-7 M)). […] The dose of each Aβ peptide was 1 μM, with the exception of Aβ25-35 (1 μM and 5 μM), and was added ten minutes prior to the first ET-1 dose. For SOD treatment we added 150 U/ml 30 seconds before the addition of Aβ.
Endothelium was removed by gently passing a glass pipette, dipped in saline solution, through the lumen of the aortae several time, allowing the pipette to gently brush the endothelial surface. Endothelium was removed from the aortae prior to hanging in the tissue bath system. Both pre-and post treatment contractions involved a single does of ET-1 (5×10^-9 M).
In all cases the mean difference in percentage contraction in the pre- and post-contractions (before and after addition of test compound respectively) was measured, and compared between the two. Endogenous production of ET-1 was measured using an ET-1 RIA kit (Peninsula Laboratories).

[2] = test system: human neuroblastoma cell line (BE(2)-M17); assay: Aβ toxicity on BE(2)-M17 (trypan blue exclusion); assay type: cell-based; conditions: same concentrations as HAEC cultures, up to day eight; data not shown
Excerpt: Trypan blue exclusion was used for the cell viability assay.

rat coronary arteries = assay: Rat coronary artery constriction and relaxation (U46619, acetylcholine); conditions: for constriction of rat coronary artery by the peptide: 10^-6 M peptide
Description: The effects of β-amyloid peptide were examined on samples of rat coronary arteries prepared as described above. Referring specifically to FIG. 1, rat coronary arteries were treated with β-amyloid peptide (Aβ40) causing constriction of the coronary arteries.
FIG. 3 illustrates the effect of various amyloid fragments on the constriction of rat coronary arteries. Following control constriction with 10^-7 M U46619, the tissue samples were rinsed, equilibrated with buffer, and treated with 10^-6 M Aβ peptides for fifteen minutes. Following treatment with the Aβ peptides, the blood vessels were rinsed and again exposed to U46619. The values are expressed as percent of control constriction produced by U46619 alone.
The effect of pretreatment of coronary arteries with a single dose (10^-6 M) of A40 on acetylcholine induced relaxation is shown in FIG. 20. The blood vessel was preconstricted with 10^-7 M U46619 and relaxed with increasing doses of acetylcholine (10^-9 M to 10^-5 M).

[3] = test system: human aortic endothelial cel line (HAEC)
Description: as §2, §3, §4, §5

Compound: albumin
- protection against β-amyloid enhancement of PE induced contraction (aortic rings; preincubation before 10^-6 M β-amyloid, 10^-7 M PE): did not protect

Compound: catalase
- effect on β-amyloid induced enhancement of PE mediated contraction (aortic rings): None of the compounds exerted any significant effect

Compound: CNC[C@H](O)c1cccc(O)c1 [phenylephrine]
- Emax at 1000 µM (blood vessel (rat aorta); Rattus norvegicus, phenylephrine (1 mM), viability test of vessel, read-out: response elicited, of the maximum response): 80%
- constriction of blood vessel (blood vessel (rat aorta); with or without endothelium): constricted in response to phenylephrine with or without endothelium

Compound: O=c1[nH]c2ccccc2n1C1CCN(CCCC(c2ccc(F)cc2)c2ccc(F)cc2)CC1 [pimozide]
- own toxicity of the blocker on HAEC [1]: seems to be toxic itself

Compound: Aβ25-35: fragment of Aβ, widely regarded to be the neurotoxic fragment (GSNKGAIIGLM; Amyloid-beta protein 42; UniProt P05067 696-706, looked up, fragment)
- enhancement of ET-1 contraction (rat aorta): unable to enhance contraction even at five times the concentration of Aβ1-40
- toxic effect on differentiated BE(2)-M17 cells [2]: not toxic effect was noticed
- constriction of rat coronary artery by the peptide (rat coronary arteries): induce constriction of the coronary artery
- cell morphology by HE staining [3]: highly vacuolized cytoplasm, blebbing cell membranes and swelling cell bodies
- cell viability one half hour post treatment [3]: significant reduction of cell viability
- time and dose dependence of toxic effects on HAEC [3]: time-and dose-dependent manner

Compound: O=C(O)CCC/C=C\C[C@@H]1[C@H](CNNC(=O)Nc2ccccc2)[C@H]2CC[C@@H]1O2 [SQ 29548]
- effect on β-amyloid induced enhancement of PE mediated contraction (aortic rings): None of the compounds exerted any significant effect

Compound: CCCCC[C@H](O)/C=C/[C@@H]1[C@@H](C/C=C\CCCC(=O)O)[C@H]2CO[C@@H]1C2 [U46619]
- constriction of rat coronary artery by vasoconstrictor (rat coronary arteries; 10^-7 M): caused constriction of the blood vessel

Compound: Oc1ncnc2[nH]ncc12 [allopurinol]
- effect of allopurinol on Aβ enhancement (rat aorta): No effect on Aβ enhancement

Compound: COc1ccc(CCN(C)CCCC(C#N)(c2ccc(OC)c(OC)c2)C(C)C)cc1OC (stereo not shown) [verapamil]
- ET-1 contraction with the compound alone (rat aorta; verapamil 50 μM): caused enhancement of contraction
- effect on Aβ enhancement of ET-1 contraction (rat aorta; verapamil 50 μM two minutes before Aβ, endothelium present): had no effect on Aβ enhancement

Compound: Aβ1-42: β-amyloid peptide with forty-two amino acids; supplied by RBI and/or MD Enterprise
- enhancement of vasoconstriction compared with Aβ1-40 (rat aorta): decreased enhancement of vasoconstriction
- enhancement of ET-1 contraction (rat aorta): also enhanced the ET-1 contraction
- toxic effect on differentiated BE(2)-M17 cells [2]: not toxic effect was noticed
- cell morphology by HE staining [3]: highly vacuolized cytoplasm, blebbing cell membranes and swelling cell bodies
- cell viability one half hour post treatment [3]: significant reduction of cell viability
- time and dose dependence of toxic effects on HAEC [3]: time-and dose-dependent manner

Compound: COc1ccc2c(c1)c(CC(=O)O)c(C)n2C(=O)c1ccc(Cl)cc1 [indomethacin]
- effect on β-amyloid induced enhancement of PE mediated contraction (aortic rings): None of the compounds exerted any significant effect

Compound: CNC(=N)NCCC[C@H](N)C(=O)O [L-NMMA]
- effect on β-amyloid induced enhancement of PE mediated contraction (aortic rings): None of the compounds exerted any significant effect

Compound: Aβ1-28: β-amyloid peptide fragment 1-28
- constriction of rat coronary artery by the peptide (rat coronary arteries): induce constriction of the coronary artery

Reference: patent publication US6011019A, “Vasoactive effects and free radical generation by β-amyloid peptides” (University of South Florida, priority 1996, dated 2000)
